Laboratory results published in patent publication US10258235B2, “Method and device for the assessment of bowel function” (Purdue Pharma L.P., priority 2005, dated 2019).
Values joined by “and” are separate entries in the source; they are usually repeats but may differ in a detail not shown here. Equal values may be shown once. “Also recorded” adds a separate entry of the source. Read-outs that look alike come from different tables or passages of the source.

Legend:
[1] = test system: patients with severe chronic pain of tumor and non-tumor origin; assay: Mean pain (0-100 NAS) during the last 7 days before each visit, clinical Phase II study; assay type: in vivo, human; details: for Mean Pain, Mean V5 / Mean Pain, Mean V3: NAS 0-100; for Mean Pain, Mean V3: end of titration visit (V3, baseline before naloxone)
Experimental: (§1) The method of the present invention and analog scales of the present invention were employed in a clinical Phase II study conducted in Europe.
(§2) For some analyses, the last observation was carried forward for those ITT subjects who discontinued after Visit 4 (ITT/LOCF). In other instances, only the available data were used (ITT non-missing).
(§3) The Per Protocol (PP) population included all randomized patients who completed the study (including the follow-up phase) without major protocol violations. […] Only deviations from the visit window of the maintenance phase visits (visit 4 and 5) were regarded as major protocol violations. Deviations from the other visits were regarded as minor protocol violations. […] 3. Primary Efficacy Variables
(§4) a) Mean Pain during the last 7 days prior to each visit, based on the patient's twice-daily assessment of pain intensity using the 0-100 numerical analogue scale (NAS) (0=no pain and 100=worst imaginable pain). Mean Pain was calculated for each study visit as the mean value of the daily mean values of all patient's diary entries from the last 7 days. b) Mean bowel function: patient's assessment, at each study visit, of bowel function during the last 7 days prior to each visit. Mean bowel function was calculated from the mean of the three 0-100 NAS scores: ease of defecation (0=easy/no difficulty, 100=severe difficulty), feeling of incomplete bowel evacuation (0=not at all, 100=very strong), and judgment of constipation (0=not at all, 100=very strong). 4. Analgesic Efficacy Results

[2] = test system: patients with severe chronic pain of tumor and non-tumor origin; details: for Mean Bowel Function Score, Mean V3: end of titration visit (V3, baseline before naloxone); for mean bowel function (±SD) at Visit 4: Visit 4 (after 1 week of naloxone); for mean bowel function (±SD) at the end of the maintenance phase: PP population
Experimental: as §1, §2, §3, §4
Mean bowel function was calculated for each study visit from the mean of the three NAS values ease/difficulty of defecation, feeling of incomplete bowel evacuation and judgment of constipation.
In addition, two-sided 95% CIs (CI, confidence interval) for the difference in means between the treatment groups were provided. […] These analyses were performed for the ITT and PP populations.
The parameter estimates derived were taken to display a surface plot of the whole dose range investigated. Moreover, a contour plot of the bowel function with a granulation of 10 was performed.

C=CCN1CC[C@]23c4c5ccc(O)c4O[C@H]2C(=O)CC[C@@]3(O)[C@H]1C5 [Naloxone, naloxone]
Mean Pain, Mean V5 ([1]; ITT non-missing, end of maintenance visit (V5, 4 weeks), naloxone 10 mg/day plus oxycodone 40-80 mg/day): 37.2
Mean Pain, Mean V5 ([1]; ITT non-missing, end of maintenance visit (V5, 4 weeks), naloxone 20 mg/day plus oxycodone 40-80 mg/day): 37.5
Mean Pain, Mean V5 ([1]; ITT non-missing, end of maintenance visit (V5, 4 weeks), naloxone 40 mg/day plus oxycodone 40-80 mg/day): 38.7
Mean Pain, Mean V3 ([1]; ITT non-missing, naloxone 10 mg/day group, oxycodone 40-80 mg/day): 35.9
Mean Pain, Mean V3 ([1]; ITT non-missing, naloxone 20 mg/day group, oxycodone 40-80 mg/day): 39.8
Mean Pain, Mean V3 ([1]; ITT non-missing, naloxone 40 mg/day group, oxycodone 40-80 mg/day): 38.1
Mean Pain, Mean V5 ([1]; PP, end of maintenance visit (V5), naloxone 10 mg/day plus oxycodone 40-80 mg/day): 38.8
Mean Pain, Mean V5 ([1]; PP, end of maintenance visit (V5), naloxone 20 mg/day plus oxycodone 40-80 mg/day): 36.1
Mean Pain, Mean V5 ([1]; PP, end of maintenance visit (V5), naloxone 40 mg/day plus oxycodone 40-80 mg/day): 38.7
Mean Pain, Mean V3 ([1]; PP, naloxone 10 mg/day group): 38.0
Mean Pain, Mean V3 ([1]; PP, naloxone 20 mg/day group): 40.1
Mean Pain, Mean V3 ([1]; PP, naloxone 40 mg/day group): 39.0
Analgesic efficacy / mean pain, active naloxone versus naloxone placebo (in words) ([1]; end of maintenance, naloxone 10-40 mg/day added to oxycodone 40-80 mg/day): did not point to a difference in analgesic efficacy; also recorded: no evidence of changes in mean pain with varying amounts of naloxone
Mean Bowel Function Score, Mean V5 ([2]; ITT (non-missing), end of maintenance (V5, 4 weeks), naloxone 10 mg/day plus oxycodone 40-80 mg/day, NAS 0-100, higher = worse): 40.3
Mean Bowel Function Score, Mean V5 ([2]; ITT (non-missing), end of maintenance (V5, 4 weeks), naloxone 10 mg/day plus oxycodone 40-80 mg/day, NAS 0-100, higher = worse, listed as naloxone): 40.3 (±23.09) and 40.3 (±23.1)
Mean Bowel Function Score, Mean V5 ([2]; ITT (non-missing), end of maintenance (V5, 4 weeks), naloxone 20 mg/day plus oxycodone 40-80 mg/day, NAS 0-100, higher = worse): 31.3
Mean Bowel Function Score, Mean V5 ([2]; ITT (non-missing), end of maintenance (V5, 4 weeks), naloxone 20 mg/day plus oxycodone 40-80 mg/day, NAS 0-100, higher = worse, listed as naloxone): 31.3 (±25.82) and 31.3 (±25.8)
Mean Bowel Function Score, Mean V5 ([2]; ITT (non-missing), end of maintenance (V5, 4 weeks), naloxone 40 mg/day plus oxycodone 40-80 mg/day, NAS 0-100, higher = worse): 26.1
Mean Bowel Function Score, Mean V5 ([2]; ITT (non-missing), end of maintenance (V5, 4 weeks), naloxone 40 mg/day plus oxycodone 40-80 mg/day, NAS 0-100, higher = worse, listed as naloxone): 26.1 (±25.08) and 26.1 (±25.1)
Mean Bowel Function Score, Mean V3 ([2]; ITT non-missing, naloxone 10 mg/day group, NAS 0-100, higher = worse): 53.5
Mean Bowel Function Score, Mean V3 ([2]; ITT non-missing, naloxone 20 mg/day group, NAS 0-100, higher = worse): 51.3
Mean Bowel Function Score, Mean V3 ([2]; ITT non-missing, naloxone 40 mg/day group, NAS 0-100, higher = worse): 48.2
Mean Bowel Function Score, Mean V5 ([2]; ITT/LOCF, end of maintenance visit (V5), naloxone 10 mg/day plus oxycodone 40-80 mg/day): 40.1
Mean Bowel Function Score, Mean V5 ([2]; ITT/LOCF, end of maintenance visit (V5), naloxone 20 mg/day plus oxycodone 40-80 mg/day): 33.2
Mean Bowel Function Score, Mean V5 ([2]; ITT/LOCF, end of maintenance visit (V5), naloxone 40 mg/day plus oxycodone 40-80 mg/day): 26.5
Mean Bowel Function Score, Mean V3 ([2]; ITT/LOCF, naloxone 10 mg/day group): 53.6
Mean Bowel Function Score, Mean V3 ([2]; ITT/LOCF, naloxone 20 mg/day group): 49.9
Mean Bowel Function Score, Mean V3 ([2]; ITT/LOCF, naloxone 40 mg/day group): 47.7
mean bowel function (±SD) at Visit 4 ([2]; ITT, naloxone 10 mg/day): 42.1 (±25.53)
mean bowel function (±SD) at Visit 4 ([2]; ITT, naloxone 20 mg/day): 34.2 (±30.04)
mean bowel function (±SD) at Visit 4 ([2]; ITT, naloxone 40 mg/day): 27.9 (±22.68)
mean bowel function (±SD) at the end of follow-up ([2]; ITT, end of two-week follow-up on oxycodone only, former 40 mg naloxone group): 42.4 (±23.19)
mean bowel function (±SD) at the end of the maintenance phase ([2]; naloxone 10 mg/day): 39.4 (±23.44)
mean bowel function (±SD) at the end of the maintenance phase ([2]; naloxone 20 mg/day): 29.8 (±29.29)
mean bowel function (±SD) at the end of the maintenance phase ([2]; naloxone 40 mg/day): 29.6 (±28.34)
effect of adding controlled release naloxone to controlled release oxycodone on mean bowel function (in words) ([2]; the two higher doses of naloxone (20 mg and 40 mg)): statistically significant improvement in mean bowel function
